Measurements as given in publication PMC11728707, “Chemical Composition and Assessment of the Anti-Inflammatory, Antioxidant, Cytotoxic and Skin Enzyme Inhibitory Activities of Citrus sinensis (L.) Osbeck Essential Oil and Its Major Compound Limonene” (Pharmaceuticals, 2024).

Target: T1, tyrosinase
T1 construct: gene PPO3
Assay: spectrophotometric L-DOPA oxidation assay, […] nm
Assay type: biochemical
Details: 5 mM L-DOPA, 50 mM phosphate pH 6.5, 37 °C

| Tyrosinase | SMILES |
| --- | --- |
| 86.07 ± 1.53 µg/mL | C=C(C)[C@H]1CC=C(C)CC1 [Limonene] |
| 111.03 ± 0.1 µg/mL | O=c1c(O)c(-c2ccc(O)c(O)c2)oc2cc(O)cc(O)c12 [Quercetin] |
